In ChEMBL document CHEMBL5442334, “ASAP - In vitro safety pharmacology profile” (2024):

Assays:
Settings in all cases: Test compound concentration 10.0 uM
[1] = molecular target: Beta-2 adrenergic receptor (Homo sapiens) (UniProt P07550); assay: SafetyScreen: beta2 Human Adrenoceptor GPCR Binding Antagonist Radioligand LeadHunter Assay, catalogue number: 20
[2] = molecular target: Sodium-dependent serotonin transporter (Homo sapiens) (UniProt P31645); assay: SafetyScreen: SERT Human Serotonin Transporter Binding Antagonist Radioligand LeadHunter Assay, catalogue number: 439
[3] = molecular target: Vasopressin V1a receptor (Homo sapiens) (UniProt P37288); assay: SafetyScreen: V1A Human Vasopressin / Oxytocin GPCR Binding Agonist Radioligand LeadHunter Assay, catalogue number: 159
[4] = molecular target: Beta-1 adrenergic receptor (Homo sapiens) (UniProt P08588); assay: SafetyScreen: beta1 Human Adrenoceptor GPCR Binding Agonist Radioligand LeadHunter Assay, catalogue number: 18
[5] = molecular target: Glutamate NMDA receptor (Rattus norvegicus) (UniProt P35439+Q00959+Q00960+Q00961+Q62645+Q8VHN2+Q9R1M7); assay: SafetyScreen: Glutamate (NMDA, Non-Selective) Rat Ion Channel [3H] CGP-39653 Binding LeadHunter Assay, catalogue number: 66; type: protein-complex assay
[6] = molecular target: Prostaglandin G/H synthase 1 (Homo sapiens) (UniProt P23219); assay: SafetyScreen: COX1 Human Cyclooxygenase Enzymatic LeadHunter Assay, catalogue number: 4173; type: functional
[7] = molecular target: Sodium-dependent dopamine transporter (Homo sapiens) (UniProt Q01959); assay: SafetyScreen: DAT Human Dopamine Transporter Binding Antagonist Radioligand LeadHunter Assay, catalogue number: 52
[8] = molecular target: 3',5'-cyclic-AMP phosphodiesterase 4D (Homo sapiens) (UniProt Q08499); assay: SafetyScreen: PDE4D2 Human Phosphodiesterase Enzymatic LeadHunter Assay, catalogue number: 4077; type: functional
[9] = molecular target: Histamine H2 receptor (Homo sapiens) (UniProt P25021); assay: SafetyScreen: H2 Human Histamine GPCR Binding Antagonist Radioligand LeadHunter Assay, catalogue number: 1208
Sequence of Histamine H2 receptor (Homo sapiens) (P25021 whole entry): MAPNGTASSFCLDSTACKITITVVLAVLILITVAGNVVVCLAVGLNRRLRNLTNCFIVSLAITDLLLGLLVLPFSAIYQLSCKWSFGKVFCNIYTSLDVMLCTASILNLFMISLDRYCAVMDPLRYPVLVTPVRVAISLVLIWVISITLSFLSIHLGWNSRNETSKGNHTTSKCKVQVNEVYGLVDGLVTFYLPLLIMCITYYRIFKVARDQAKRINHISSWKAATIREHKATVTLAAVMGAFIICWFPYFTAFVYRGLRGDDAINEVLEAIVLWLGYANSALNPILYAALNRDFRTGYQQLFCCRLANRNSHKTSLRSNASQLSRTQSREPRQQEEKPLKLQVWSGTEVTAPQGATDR

Sequence of Sodium-dependent dopamine transporter (Homo sapiens) (Q01959 whole entry): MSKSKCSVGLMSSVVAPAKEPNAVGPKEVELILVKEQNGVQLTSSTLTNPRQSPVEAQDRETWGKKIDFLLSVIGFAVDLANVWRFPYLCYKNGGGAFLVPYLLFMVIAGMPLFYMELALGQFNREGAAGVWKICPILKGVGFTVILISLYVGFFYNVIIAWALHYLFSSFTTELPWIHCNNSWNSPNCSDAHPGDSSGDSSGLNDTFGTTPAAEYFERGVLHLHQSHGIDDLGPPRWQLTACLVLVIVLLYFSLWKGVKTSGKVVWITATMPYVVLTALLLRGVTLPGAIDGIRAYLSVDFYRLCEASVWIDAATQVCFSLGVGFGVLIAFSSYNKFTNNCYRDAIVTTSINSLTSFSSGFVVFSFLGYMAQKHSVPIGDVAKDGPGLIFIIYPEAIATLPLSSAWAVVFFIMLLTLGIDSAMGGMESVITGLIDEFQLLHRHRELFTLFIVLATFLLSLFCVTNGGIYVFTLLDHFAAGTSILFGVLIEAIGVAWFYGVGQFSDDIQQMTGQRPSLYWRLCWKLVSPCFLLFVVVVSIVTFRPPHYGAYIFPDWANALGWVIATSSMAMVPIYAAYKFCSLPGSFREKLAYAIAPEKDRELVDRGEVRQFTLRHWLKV
Sequence of Vasopressin V1a receptor (Homo sapiens) (P37288 whole entry, looked up): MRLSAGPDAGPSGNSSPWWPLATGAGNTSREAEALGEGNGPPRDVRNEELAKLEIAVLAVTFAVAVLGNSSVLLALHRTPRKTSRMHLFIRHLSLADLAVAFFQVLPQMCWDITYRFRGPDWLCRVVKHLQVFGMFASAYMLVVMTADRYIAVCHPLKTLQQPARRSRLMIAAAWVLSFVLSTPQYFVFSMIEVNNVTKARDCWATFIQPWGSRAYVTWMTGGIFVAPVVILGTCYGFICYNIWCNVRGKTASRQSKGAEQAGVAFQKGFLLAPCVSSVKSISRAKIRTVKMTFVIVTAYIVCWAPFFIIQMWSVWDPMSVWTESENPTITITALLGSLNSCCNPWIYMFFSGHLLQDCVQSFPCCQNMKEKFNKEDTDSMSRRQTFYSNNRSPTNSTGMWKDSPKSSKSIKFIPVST
Sequence of Sodium-dependent serotonin transporter (Homo sapiens) (P31645 whole entry, looked up): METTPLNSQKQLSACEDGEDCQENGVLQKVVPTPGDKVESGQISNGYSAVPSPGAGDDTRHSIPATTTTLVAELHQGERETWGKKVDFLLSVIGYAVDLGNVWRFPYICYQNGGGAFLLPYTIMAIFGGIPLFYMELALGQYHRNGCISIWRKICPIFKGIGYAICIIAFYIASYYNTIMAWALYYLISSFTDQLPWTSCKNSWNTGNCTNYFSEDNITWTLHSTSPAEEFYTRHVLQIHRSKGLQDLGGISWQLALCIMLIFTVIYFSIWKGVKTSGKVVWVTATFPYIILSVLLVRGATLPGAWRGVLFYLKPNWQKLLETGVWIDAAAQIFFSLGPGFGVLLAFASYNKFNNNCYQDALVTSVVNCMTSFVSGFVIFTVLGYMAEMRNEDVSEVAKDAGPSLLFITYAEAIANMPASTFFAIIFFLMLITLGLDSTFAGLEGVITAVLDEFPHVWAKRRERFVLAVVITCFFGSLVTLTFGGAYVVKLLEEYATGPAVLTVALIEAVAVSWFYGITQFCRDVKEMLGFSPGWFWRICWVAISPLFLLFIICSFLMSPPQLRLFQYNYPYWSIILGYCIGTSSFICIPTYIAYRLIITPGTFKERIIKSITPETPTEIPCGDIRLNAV
Sequence of Prostaglandin G/H synthase 1 (Homo sapiens) (P23219 whole entry): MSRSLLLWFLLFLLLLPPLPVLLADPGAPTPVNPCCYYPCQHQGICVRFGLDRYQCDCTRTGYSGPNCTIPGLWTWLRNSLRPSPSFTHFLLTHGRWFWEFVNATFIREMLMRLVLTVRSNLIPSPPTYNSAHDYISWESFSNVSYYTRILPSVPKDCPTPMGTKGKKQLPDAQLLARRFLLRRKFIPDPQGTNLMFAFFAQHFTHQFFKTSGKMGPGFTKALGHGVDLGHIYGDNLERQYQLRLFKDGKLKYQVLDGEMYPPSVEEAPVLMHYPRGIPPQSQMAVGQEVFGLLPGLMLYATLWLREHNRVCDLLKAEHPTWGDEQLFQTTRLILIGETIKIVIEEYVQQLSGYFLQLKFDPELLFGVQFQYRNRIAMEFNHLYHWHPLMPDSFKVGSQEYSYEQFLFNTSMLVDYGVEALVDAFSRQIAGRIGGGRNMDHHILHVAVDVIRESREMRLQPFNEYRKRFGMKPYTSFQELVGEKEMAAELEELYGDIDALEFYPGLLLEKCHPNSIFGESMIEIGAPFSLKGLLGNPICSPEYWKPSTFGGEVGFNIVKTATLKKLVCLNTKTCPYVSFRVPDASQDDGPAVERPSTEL
Sequence of Beta-2 adrenergic receptor (Homo sapiens) (P07550 whole entry, looked up): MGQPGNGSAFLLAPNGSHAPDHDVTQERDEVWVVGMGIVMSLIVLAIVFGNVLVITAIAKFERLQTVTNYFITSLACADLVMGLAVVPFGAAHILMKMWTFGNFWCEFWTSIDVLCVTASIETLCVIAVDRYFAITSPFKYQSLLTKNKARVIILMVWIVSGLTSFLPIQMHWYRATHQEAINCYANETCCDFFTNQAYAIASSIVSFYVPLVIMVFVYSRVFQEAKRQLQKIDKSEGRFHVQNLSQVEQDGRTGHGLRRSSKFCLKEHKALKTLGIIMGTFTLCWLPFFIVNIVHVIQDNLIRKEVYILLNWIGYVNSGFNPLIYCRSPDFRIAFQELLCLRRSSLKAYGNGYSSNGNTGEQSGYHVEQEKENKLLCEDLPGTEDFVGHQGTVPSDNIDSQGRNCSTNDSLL
Sequence of Beta-1 adrenergic receptor (Homo sapiens) (P08588 whole entry, looked up): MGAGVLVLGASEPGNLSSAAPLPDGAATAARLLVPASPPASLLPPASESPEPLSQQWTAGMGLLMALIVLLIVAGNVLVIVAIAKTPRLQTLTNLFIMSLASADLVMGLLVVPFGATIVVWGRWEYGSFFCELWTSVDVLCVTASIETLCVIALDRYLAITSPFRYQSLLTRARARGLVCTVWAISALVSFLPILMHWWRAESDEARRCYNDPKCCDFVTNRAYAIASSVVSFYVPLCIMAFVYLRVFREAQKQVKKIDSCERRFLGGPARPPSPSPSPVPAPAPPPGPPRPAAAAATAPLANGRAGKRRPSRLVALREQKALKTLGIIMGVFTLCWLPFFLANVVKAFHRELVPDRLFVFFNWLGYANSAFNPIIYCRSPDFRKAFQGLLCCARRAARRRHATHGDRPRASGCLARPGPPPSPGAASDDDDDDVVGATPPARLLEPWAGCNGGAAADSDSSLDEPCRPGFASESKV
Sequence of 3',5'-cyclic-AMP phosphodiesterase 4D (Homo sapiens) (Q08499 whole entry): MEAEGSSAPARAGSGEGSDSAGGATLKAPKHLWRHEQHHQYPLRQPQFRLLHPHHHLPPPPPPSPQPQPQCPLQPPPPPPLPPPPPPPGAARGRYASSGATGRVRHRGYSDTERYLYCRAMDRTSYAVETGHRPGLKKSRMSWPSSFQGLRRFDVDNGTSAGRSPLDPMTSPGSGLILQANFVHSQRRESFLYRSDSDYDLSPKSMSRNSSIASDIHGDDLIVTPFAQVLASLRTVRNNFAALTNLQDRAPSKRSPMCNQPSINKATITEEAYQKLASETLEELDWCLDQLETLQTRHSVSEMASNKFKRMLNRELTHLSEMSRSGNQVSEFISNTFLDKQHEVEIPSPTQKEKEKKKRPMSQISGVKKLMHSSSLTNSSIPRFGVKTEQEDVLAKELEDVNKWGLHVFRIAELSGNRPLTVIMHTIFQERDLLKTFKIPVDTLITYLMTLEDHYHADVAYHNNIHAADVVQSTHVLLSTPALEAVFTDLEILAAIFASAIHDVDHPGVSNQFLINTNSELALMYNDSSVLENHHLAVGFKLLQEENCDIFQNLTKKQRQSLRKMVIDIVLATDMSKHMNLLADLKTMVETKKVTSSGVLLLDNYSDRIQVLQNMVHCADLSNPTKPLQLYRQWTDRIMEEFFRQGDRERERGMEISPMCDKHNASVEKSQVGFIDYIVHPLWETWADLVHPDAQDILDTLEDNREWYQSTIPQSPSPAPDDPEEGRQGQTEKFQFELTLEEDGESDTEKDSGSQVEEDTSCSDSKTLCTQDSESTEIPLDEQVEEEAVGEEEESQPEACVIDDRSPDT

| Compound | inhibition [1] | inhibition [2] | inhibition [3] | inhibition [4] | inhibition [5] | inhibition [6] | inhibition [7] | inhibition [8] | inhibition [9] |
| --- | --- | --- | --- | --- | --- | --- | --- | --- | --- |
| C[C@H](C(=O)O)[C@@H](NC(=O)c1ncnc2[nH]ccc12)c1ccc(Br)cc1 | -8% | 0% | 62% | -5% | 4% | 14% | 4% | 30% |  |
| CC(C)[C@H](Nc1ncnc2[nH]c(-c3cnn(C)c3C#N)cc12)c1ccc2c(n1)OCCO2 | 3% | 4% | 27% | 11% | 2% |  | 29% | 70% |  |
| CC(C)[C@@H](Nc1ncnc2[nH]c(-c3cnn(C)c3C#N)cc12)c1ccc2c(n1)OCCO2 | 3% | 9% | 20% | -2% | 1% |  | 30% | 44% |  |
| Cc1nn(C)cc1-c1cc2c(N[C@H](c3ccc4c(c3)S(=O)(=O)CCC4)C(C)C)ncnc2[nH]1 | -7% | -4% | 14% | 1% | -2% |  | 13% | 43% | -4% |
| Cn1ncc(-c2cc3c(N[C@@H](c4ccc5c(n4)OCCO5)C(C)(C)C)ncnc3[nH]2)c1C#N | 4% | 2% | 57% | 11% | 11% |  | 50% | 20% | -10% |
| COc1ccc([C@H](Cc2nnn[nH]2)NC(=O)c2ncnc3[nH]ccc23)cc1 | -6% | -1% | 5% | -3% | 9% | 17% | 7% | 41% |  |
| CNC(=O)Cn1cc(-c2cc3c(N[C@@H](c4ccc5c(c4)S(=O)(=O)CCC5)C(C)C)ncnc3[nH]2)cn1 | 0% | -3% | 15% | 5% | -1% | -8% | 1% | 41% |  |
| CC(C)[C@H](Nc1ncnc2[nH]ccc12)c1ccc2c(c1)S(=O)(=O)CCC2 | -1% | 0% | 6% | 11% | -1% | 85% | 27% | 36% | -6% |
| CC(C)[C@@H](Nc1ncnc2[nH]c(C(=O)N[C@@H]3CCN(C)C3)cc12)c1ccc2c(c1)S(=O)(=O)CCC2 | -3% | 1% | 6% | 4% | 1% | 44% | 22% | 37% | -9% |
| CNCc1cc(-c2cc3c(N[C@@H](c4ccc5c(c4)S(=O)(=O)CCC5)C(C)C)ncnc3[nH]2)co1 | 6% | 24% | 13% | -4% | -1% | -6% | 50% | 43% | -3% |
